According to ChEMBL document CHEMBL4052788, “Pocket detection and interaction-weighted ligand-similarity search yields novel high-affinity binders for Myocilin-OLF, a protein implicated in glaucoma” (Bioorg Med Chem Lett, 2017):

Tests used:
[1] = molecular target: T1, Myocilin (Homo sapiens, UniProt Q99972); test: Binding affinity myocilin-OLF domain (unknown origin) by Sypro Orange dye-based DSF assay; settings: read-out: Kd(app)
T1 sequence (Q99972 whole entry): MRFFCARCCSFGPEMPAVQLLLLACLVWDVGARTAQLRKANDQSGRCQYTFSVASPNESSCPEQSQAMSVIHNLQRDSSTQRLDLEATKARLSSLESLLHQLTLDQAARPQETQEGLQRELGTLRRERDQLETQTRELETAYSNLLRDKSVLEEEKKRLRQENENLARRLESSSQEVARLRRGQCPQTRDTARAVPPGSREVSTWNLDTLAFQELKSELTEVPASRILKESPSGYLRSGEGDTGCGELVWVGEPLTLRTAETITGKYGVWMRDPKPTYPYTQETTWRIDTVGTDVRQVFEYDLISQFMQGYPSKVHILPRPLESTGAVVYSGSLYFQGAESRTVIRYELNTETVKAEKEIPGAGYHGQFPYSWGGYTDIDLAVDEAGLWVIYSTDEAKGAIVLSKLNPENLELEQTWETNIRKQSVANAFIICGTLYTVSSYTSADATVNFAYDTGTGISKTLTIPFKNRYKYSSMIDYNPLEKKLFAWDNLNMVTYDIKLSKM

[2] = molecular target: T2, Myocilin (Homo sapiens) (UniProt Q99972); test: Binding affinity myocilin-OLF domain (unknown origin) assessed as change in melting temperature by Sypro Orange dye-based DSF assay
T2 sequence (whole entry): T1 sequence (Q99972 whole entry)

[3] = molecular target: T1, Myocilin; test: Binding affinity myocilin-OLF domain (unknown origin) by SRP assay
[4] = molecular target: T2, Myocilin (Homo sapiens); test: Binding affinity myocilin-OLF domain (unknown origin) assessed as change in melting temperature by SRP assay

Kd [1] [µM] | ΔTm [2] [°C] | Kd [3] [µM] | ΔTm [4] [°C] | Compound
 | 32 |  |  | COc1cccc(NC(S)=Nc2ccc(O)cc2)c1
300 | 0.91 |  |  | COc1cc(C(=O)C(=O)c2ccc(O)c(OC)c2)ccc1O
220 | 1.5 |  |  | CN(C)c1ccc(/C=C/C(=O)c2cc(Cl)ccc2O)cc1
190 | 1.78 |  |  | Nc1nc(N)c(/N=N/c2ccc(C(=O)O)cc2)c(N)n1
 |  | 33.5 | 0.2 | O=C1Nc2ccc(I)cc2C1=Cc1cc(Br)c(O)c(Br)c1 [GW305074X]
170 | 2.02 |  |  | O=C1c2ccccc2C(=O)C1C(c1ccc([N+](=O)[O-])cc1)C1C(=O)c2ccccc2C1=O
200 | 1.96 |  |  | O=C(Cn1ccc(=O)[nH]c1=O)Nc1ccc(C(=O)O)c(O)c1
11 | 6.3 |  |  | Cc1ccc(C(C)C)cc1NC(=O)Nc1ccc([N+](=O)[O-])cc1
 |  | 41.6 | -0.3 | O=c1cc(-c2ccc(O)cc2)oc2cc(O)cc(O)c12 [APIGENIN]
0.099 | 16.4 |  |  | O=C(/C=C/c1ccc(O)c(O)c1)c1ccccc1O

Compound | Kd [1] [µM] | ΔTm [2] [°C] | Kd [3] [µM] | ΔTm [4] [°C]
O=C(Nc1ccc(Oc2ccc(NC(=O)Nc3ccc([N+](=O)[O-])cc3)cc2)cc1)Nc1ccc([N+](=O)[O-])cc1 | 0.65 | 11.2 |  | 
Cc1cc(N(CCCl)CCCl)ccc1/C=N/NC(=O)Cc1cc(=O)oc2cc(O)ccc12 | 210 | 1.6 |  | 
